In patent publication US6087334A, “Anti-diabetic peptides” (Amylin Pharmaceuticals, Inc., priority 1998, dated 2000):
Where two headings read alike, the source gives them in different places. Where no end group is shown, it is not given here.

Legend:
[1] = tested on: gastric emptying in conscious rats; settings: for Inhibition of gastric emptying (in words): conscious rat model
Excerpt: Peptide compounds of the present invention may be evaluated for amylin agonist activity using the methods of measuring the rate of gastric emptying disclosed in, for example, Young et al., Diabetologia, 38(6):642-648 (1995). In a phenol red method, which is described in Example D below, conscious rats receive by gavage an a caloric gel containing methyl cellulose and a phenol red indicator. Twenty minutes after gavage, animals are anesthetized using halothane, the stomach exposed and clamped at the pyloric and lower esophageal sphincters, removed and opened into an alkaline solution. Stomach content may be derived from the intensity of the phenol red in the alkaline solution, measured by absorbance at a wavelength of 560 nm. In a tritiated glucose method, conscious rats are gavaged with tritiated glucose in water. The rats are gently restrained by the tail, the tip of which is anesthetized using lidocaine. Tritium in the plasma separated from tail blood is collected at various timepoints and detected in a beta counter. Test compounds are normally administered about one minute before gavage.
Phenol Red Gastric Emptying Assay:
Gastric emptying was measured using a modification (Plourde et al., Life Sci. 53:857-862 (1993)) of the original method of Scarpignato et al. (Arch. Int. Pharmacodyn. Ther. 246:286-295 (1980)). Conscious rats received by gavage. 1.5 mL of an a caloric gel containing 1.5% methyl cellulose (M-0262, Sigma Chemical Co., St. Louis, Mo.) and 0.05% phenol red indicator. Twenty minutes after gavage, rats were anesthetized using 5% halothane, the stomach exposed and clamped at the pyloric and lower esophageal sphincters using artery forceps, removed and opened into an alkaline solution which was made up to a fixed volume. Stomach content was derived from the intensity of the phenol red in the alkaline solution, measured by absorbance at a wavelength of 560 nm. […] In other experiments, particulate gastric contents were centrifuged to clear the solution for absorbance measurements. Where the diluted gastric contents remained turbid, the spectroscopic absorbance due to phenol red was derived as the difference between that present in alkaline versus acidified dilutent.
In separate experiments on 7 rats, the stomach and small intestine were both excised and opened into an alkaline solution. […] Percent gastric emptying contents remaining=(absorbance at 20 min)/(absorbance at 0 min). For those compounds for which ED50 data is presented, dose response curves for gastric emptying were fitted to a 4-parameter logistic model using a least-squares iterative routine (ALLFIT, v2.7, NIH, Bethesda, Md.) to derive ED50 s. Because ED50 is log-normally distributed, it is expressed ± standard error of the logarithm. Pairwise comparisons were performed using one-way analysis of variance and the Student-Newman-Keuls multiple comparisons test (Instat v2.0, GraphPad Software, San Diego, Calif.) using P<0.05 as the level of significance.
As a reference point for dose response studies, rat amylin (Bachem, Torrance, Calif.) dissolved in 0.15M saline, was administered as a 0.1 mL subcutaneous bolus in doses of 0, 0.01, 0.1, 1, 10 or 100 μg 5 minutes before gavage in Harlan Sprague Dawley (non-diabetic) rats fasted 20 hours and diabetic BB rats fasted 6 hours.

[2] = in vivo in rats, rabbits and humans with Paget's disease; cited from earlier work

Adrenomedullin (YRQSMNNFQGLRSFGCRFGTCTVQKLAHQIYQFTDKDKDNVAPRSKISPQGY; ends and bridges not checked; cysteine pairing not given here; UniProt P35318 95-146, looked up)
Inhibition of gastric emptying (in words) ([1]; highest doses (100 μg)): does not inhibit gastric emptying

amylin (KCNTATCATQRLANFLVHSSNNFGAILSSTNVGSNTY-NH2; not fully specified (bridges); cysteine pairing not given here; UniProt P10997 34-70, looked up) [37 amino acid peptide hormone, C-terminus amidated, cysteines 2 and 7 cross-linked; rat or human in b378]
Inhibition of gastric emptying (in words) ([1]; dose response): dose-dependently inhibit gastric emptying | Lowering of plasma calcium [2]: up to 20%

rat amylin
Inhibition of gastric emptying (in words) ([1]; dose response): dose-dependent suppression of gastric emptying | ED50 for inhibition of gastric emptying ([1]; diabetic BB rats fasted 6 hours, subcutaneous bolus 5 minutes before gavage): 2.2 µg | Suppression of gastric emptying ([1]; diabetic rats, 10 μg subcutaneous): complete | Example D ED50 ([1]; inhibition of gastric emptying, conscious rats, phenol red, 20 min after gavage): 0.26 µg | Suppression of gastric emptying ([1]; normal HSD rats, 1 μg subcutaneous): complete

rat calcitonin (CGNLSTCMLGTYTQDLNKFHTFPQTSIGVGAP; ends and bridges not checked; cysteine pairing not given here; UniProt P01257 85-116, looked up)
Inhibition of gastric emptying (in words) ([1]; dose response): dose-dependently inhibit gastric emptying

salmon calcitonin
Inhibition of gastric emptying (in words) ([1]; dose response): dose-dependently inhibit gastric emptying
